Columns and labels:
CDK2/Cyclin E1 complex = CDK2/Cyclin E1 complex (Homo sapiens, UniProt P24941); experiment: CDK2 kinase inhibition assay (Caliper/LabChip EZ Reader); assay type: biochemical; details: CDK2/Cyclin E1 0.5 nM, ATP 2 mM, 35 min at 27° C.
Experimental: (§1) Compounds of the invention were assayed for inhibition of CDK7, CDK9, CDK12, and CDK2 activity at Biortus Biosciences (Jiangyin, Jiangsu Province, P.R. of China) using kinase assays for each CDK developed with a Caliper/LabChip EZ Reader (Perkin Elmer, Waltham, Mass.).
(§2) Furthermore, the CDK9 inhibition assay used CDK9/Cyclin T1 complex (8 nM) and “5-FAM-CDK9tide” peptide substrate (2 μM, synthesized fluorophore-labeled peptide with the following sequence: 5-FAM-GSRTPMY-NH2 where 5-FAM is defined above and NH2 signifies a C-terminal amide) with 10 mM MgCl2 in the buffer composition listed above. The CDK12 inhibition assay used CDK12 (aa686-1082)/Cyclin K complex (50 nM) and “5-FAM-CDK9tide” (2 μM) as defined above, with 2 mM MgCl2 in the buffer composition above. Additionally, the CDK2 inhibition assay used CDK2/Cyclin E1 complex (0.5 nM) and “5-FAM-CDK7tide” (2 μM) as defined above, with 2 mM MgCl2 in the buffer composition listed above.
(§3) The incubation period at 27° C. for each CDK inhibition assay was chosen such that the fraction of phosphorylated peptide product produced in each assay, relative to the total peptide concentration, was approximately 20% (±5%) for the uninhibited kinase (35 min. for CDK7, 35 min. for CDK2, 3 hr. for CDK12, 15 min. for CDK9).

[1] = target: CDK7/Cyclin H/MAT1 complex (Homo sapiens, UniProt P50613); experiment: CDK7 kinase inhibition assay (Caliper/LabChip EZ Reader); assay type: biochemical; details: CDK7/Cyclin H/MAT1 6 nM, ATP 2 mM, 35 min at 27° C.
CDK7/Cyclin H/MAT1 complex, sequence (P50613 whole entry): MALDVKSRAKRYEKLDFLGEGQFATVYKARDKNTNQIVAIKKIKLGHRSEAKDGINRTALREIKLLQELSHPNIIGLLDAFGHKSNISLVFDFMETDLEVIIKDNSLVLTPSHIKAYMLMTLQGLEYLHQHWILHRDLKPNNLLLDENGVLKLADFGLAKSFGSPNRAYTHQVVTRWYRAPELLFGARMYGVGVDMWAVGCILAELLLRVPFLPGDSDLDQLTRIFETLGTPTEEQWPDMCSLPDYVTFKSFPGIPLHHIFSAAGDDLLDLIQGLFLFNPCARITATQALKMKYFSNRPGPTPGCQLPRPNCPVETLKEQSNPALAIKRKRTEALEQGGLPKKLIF
CDK7/Cyclin H/MAT1 complex, sequence (P51946 whole entry partner): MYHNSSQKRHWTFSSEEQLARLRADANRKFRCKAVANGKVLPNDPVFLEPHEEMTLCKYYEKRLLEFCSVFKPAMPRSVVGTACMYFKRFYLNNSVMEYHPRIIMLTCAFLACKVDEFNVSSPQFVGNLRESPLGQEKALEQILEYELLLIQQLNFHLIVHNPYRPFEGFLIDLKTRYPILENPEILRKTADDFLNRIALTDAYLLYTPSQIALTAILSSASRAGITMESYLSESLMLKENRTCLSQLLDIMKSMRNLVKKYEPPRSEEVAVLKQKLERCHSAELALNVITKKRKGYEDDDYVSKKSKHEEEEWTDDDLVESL
CDK7/Cyclin H/MAT1 complex, sequence (P51948 whole entry partner): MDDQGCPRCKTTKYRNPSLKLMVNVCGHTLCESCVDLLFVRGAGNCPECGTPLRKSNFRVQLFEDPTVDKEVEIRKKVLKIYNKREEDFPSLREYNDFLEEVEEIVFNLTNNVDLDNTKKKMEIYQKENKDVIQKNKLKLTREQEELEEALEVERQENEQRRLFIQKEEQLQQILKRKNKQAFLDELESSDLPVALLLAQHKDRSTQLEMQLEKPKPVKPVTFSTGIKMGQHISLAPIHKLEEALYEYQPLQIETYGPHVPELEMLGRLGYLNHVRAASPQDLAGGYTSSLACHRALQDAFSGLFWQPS
Experimental: as §1, §2, §3

CDK9/Cyclin T1 complex = CDK9/Cyclin T1 complex (Homo sapiens, UniProt P50750); experiment: CDK9 kinase inhibition assay (Caliper/LabChip EZ Reader); assay type: biochemical; details: CDK9/Cyclin T1 8 nM, ATP 2 mM, 15 min at 27° C.
CDK9/Cyclin T1 complex, sequence (P50750 whole entry): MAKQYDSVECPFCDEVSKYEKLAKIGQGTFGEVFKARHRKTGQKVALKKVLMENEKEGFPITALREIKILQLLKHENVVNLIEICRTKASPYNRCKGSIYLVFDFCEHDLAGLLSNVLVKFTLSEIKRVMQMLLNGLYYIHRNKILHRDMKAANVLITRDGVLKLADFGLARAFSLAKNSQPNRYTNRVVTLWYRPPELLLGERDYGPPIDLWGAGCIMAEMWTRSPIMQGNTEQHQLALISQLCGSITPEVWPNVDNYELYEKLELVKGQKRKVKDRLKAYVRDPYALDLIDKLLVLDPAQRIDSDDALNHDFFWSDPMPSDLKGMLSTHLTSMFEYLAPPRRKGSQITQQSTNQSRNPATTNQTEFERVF
CDK9/Cyclin T1 complex, sequence (O60563 whole entry partner): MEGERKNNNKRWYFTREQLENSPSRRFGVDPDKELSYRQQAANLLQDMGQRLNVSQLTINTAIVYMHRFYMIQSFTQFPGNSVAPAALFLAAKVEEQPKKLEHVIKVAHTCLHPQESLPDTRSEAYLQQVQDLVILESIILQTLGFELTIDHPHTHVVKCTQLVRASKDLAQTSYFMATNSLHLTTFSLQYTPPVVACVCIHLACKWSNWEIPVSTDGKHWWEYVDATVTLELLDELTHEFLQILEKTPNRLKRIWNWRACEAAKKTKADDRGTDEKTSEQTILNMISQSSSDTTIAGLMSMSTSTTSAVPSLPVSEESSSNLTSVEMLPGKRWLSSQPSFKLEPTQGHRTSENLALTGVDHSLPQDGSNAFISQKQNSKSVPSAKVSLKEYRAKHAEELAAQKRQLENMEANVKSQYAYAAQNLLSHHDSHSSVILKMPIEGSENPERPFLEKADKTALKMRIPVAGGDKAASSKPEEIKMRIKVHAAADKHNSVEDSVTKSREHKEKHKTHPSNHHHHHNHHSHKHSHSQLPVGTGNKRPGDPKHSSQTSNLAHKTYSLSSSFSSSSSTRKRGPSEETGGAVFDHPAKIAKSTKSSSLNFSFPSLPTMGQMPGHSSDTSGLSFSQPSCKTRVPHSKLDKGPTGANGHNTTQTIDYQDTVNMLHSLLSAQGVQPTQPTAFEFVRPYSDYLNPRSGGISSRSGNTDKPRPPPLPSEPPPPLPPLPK
Experimental: as §1, §2, §3

[2] = target: T1, CDK12 (aa686-1082)/Cyclin K complex (Homo sapiens, UniProt Q9NYV4); experiment: CDK12 kinase inhibition assay (Caliper/LabChip EZ Reader); assay type: biochemical; details: CDK12 (aa686-1082)/Cyclin K 50 nM, ATP 2 mM, 3 hr at 27° C.
T1 construct: CDK12 (aa686-1082)/Cyclin K complex
T1 sequence (Q9NYV4 686-1082): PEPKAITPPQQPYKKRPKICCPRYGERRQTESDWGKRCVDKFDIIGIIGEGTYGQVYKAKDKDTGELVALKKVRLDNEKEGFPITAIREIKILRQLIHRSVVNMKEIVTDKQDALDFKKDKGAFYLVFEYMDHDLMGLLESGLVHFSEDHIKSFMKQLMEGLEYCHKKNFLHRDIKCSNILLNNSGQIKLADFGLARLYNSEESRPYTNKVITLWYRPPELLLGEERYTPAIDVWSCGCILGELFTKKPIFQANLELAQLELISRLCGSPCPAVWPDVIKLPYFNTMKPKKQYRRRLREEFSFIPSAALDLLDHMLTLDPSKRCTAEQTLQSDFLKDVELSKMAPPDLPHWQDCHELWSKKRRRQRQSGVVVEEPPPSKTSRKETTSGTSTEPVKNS
T1 sequence (O75909 whole entry partner, the tested form may be a part): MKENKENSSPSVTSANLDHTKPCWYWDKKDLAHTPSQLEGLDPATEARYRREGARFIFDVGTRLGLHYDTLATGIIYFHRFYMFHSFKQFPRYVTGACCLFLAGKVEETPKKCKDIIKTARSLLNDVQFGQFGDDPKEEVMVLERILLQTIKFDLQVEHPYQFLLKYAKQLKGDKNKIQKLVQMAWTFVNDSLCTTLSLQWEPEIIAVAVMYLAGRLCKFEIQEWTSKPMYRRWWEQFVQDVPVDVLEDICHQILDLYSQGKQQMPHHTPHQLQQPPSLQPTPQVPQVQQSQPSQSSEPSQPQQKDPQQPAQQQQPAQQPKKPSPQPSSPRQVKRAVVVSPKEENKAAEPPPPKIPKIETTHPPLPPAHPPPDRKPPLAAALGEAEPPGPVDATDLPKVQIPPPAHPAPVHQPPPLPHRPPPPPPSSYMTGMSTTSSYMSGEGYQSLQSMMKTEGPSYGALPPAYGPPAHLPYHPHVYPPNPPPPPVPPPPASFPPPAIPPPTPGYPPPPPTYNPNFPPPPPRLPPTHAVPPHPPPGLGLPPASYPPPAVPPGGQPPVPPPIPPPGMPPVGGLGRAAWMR
Experimental: as §1, §2, §3

A673 cells = experiment: Inhibition of proliferation of A673 cells (CyQUANT, 72 hour); assay type: cell-based, human; details: read-out: Inhibition of Proliferation of A673 Cells (calculated IC50)
Experimental: A673 Cells: A673 cells are a cell line derived from human muscle Ewing's sarcoma. Representative compounds of the invention were tested at different concentrations (from 4 μM to […]; 0.5 log serial dilutions) for their ability to inhibit the proliferation of A673 cells. Known CDK inhibitors dinaciclib or N-((1S,3R)-3-((5-chloro-4-(1H-indol-3-yl)pyrimidin-2-yl)amino)cyclohexyl)-5-((E)-4-(dimethylamino)but-2-enamido)picolinamide and triptolide were used as positive controls. Cells were grown in Dulbecco's Modified Eagle's Medium, +10% FBS+1 mM Sodium Pyruvate. The cells were cultured at 37° C. in a humidified chamber in the presence of 5% CO2. Proliferation assays were conducted over a 72 hour time period. CyQUANT® (Life Technologies, Chicago, Ill. USA) was used to assess the anti-proliferative effects of the compounds following manufacturer's directions and utilizing the reagents supplied with the CyQUANT® kit.

| SMILES | IC50 (CDK2/Cyclin E1 complex) | IC50 [1] | IC50 (CDK9/Cyclin T1 complex) | IC50 [2] | IC50 (A673 cells) |
| --- | --- | --- | --- | --- | --- |
| Clc1cnc(NC2CCCNC2)nc1-c1c[nH]c2ccccc12 (centres unmarked) [Compound 100] | 200 to 5000 nM | < 20 nM | 200 to 5000 nM | 200 to 5000 nM | < 20 nM |
| Clc1cnc(NC2CCCNC2)nc1-c1c[nH]c2ccccc12 (centres unmarked) [Compound 101] | 200 to 5000 nM | 200 to 5000 nM | 200 to 5000 nM | 200 to 5000 nM | 20 to 200 nM |
| FC(F)(F)c1cnc(NC2CCCNC2)nc1-c1c[nH]c2ccccc12 (centres unmarked) [Compound 102] | 200 to 5000 nM | < 20 nM | 20 to 200 nM | 20 to 200 nM | < 20 nM |
| CCc1cnc(NC2CCCNC2)nc1-c1c[nH]c2ccccc12 (centres unmarked) [Compound 105] | ≥ 5000 nM | 20 to 200 nM | ≥ 5000 nM | 200 to 5000 nM | 20 to 200 nM |
| Cc1[nH]c2ccccc2c1-c1nc(NC2CCCNC2)ncc1Cl (centres unmarked) [Compound 106] | ≥ 5000 nM | 20 to 200 nM | 200 to 5000 nM | 200 to 5000 nM | 20 to 200 nM |
| Cc1ccc2[nH]cc(-c3nc(NC4CCCNC4)ncc3Cl)c2c1 (centres unmarked) [Compound 108] | 200 to 5000 nM | 20 to 200 nM | 200 to 5000 nM | 200 to 5000 nM | 200 to 5000 nM |
| CCc1cnc(NC2CCCNC2)nc1-c1n[nH]c2ccccc12 (centres unmarked) [Compound 110] | 200 to 5000 nM | 20 to 200 nM | 200 to 5000 nM | 200 to 5000 nM | 20 to 200 nM |
| Fc1cc2[nH]cc(-c3nc(NC4CCCNC4)ncc3Cl)c2cc1F (centres unmarked) [Compound 111] | 200 to 5000 nM | < 20 nM | 20 to 200 nM | 20 to 200 nM | 20 to 200 nM |
| OC1CCNCC1Nc1ncc(Cl)c(-c2c[nH]c3ccccc23)n1 (centres unmarked) [Compound 113] | ≥ 5000 nM | 20 to 200 nM | ≥ 5000 nM | 200 to 5000 nM | 200 to 5000 nM |
| CC1NCCCC1Nc1ncc(Cl)c(-c2c[nH]c3ccccc23)n1 (centres unmarked) [Compound 114] | 200 to 5000 nM | 20 to 200 nM | 200 to 5000 nM | 200 to 5000 nM | 20 to 200 nM |
| CC1(Nc2ncc(Cl)c(-c3c[nH]c4ccccc34)n2)CCCNC1 (centres unmarked) [Compound 115] | ≥ 5000 nM | 200 to 5000 nM | ≥ 5000 nM | ≥ 5000 nM | 200 to 5000 nM |
| Clc1cnc(NC2CNCCC2c2ccccc2)nc1-c1c[nH]c2ccccc12 (centres unmarked) [Compound 116] | ≥ 5000 nM | ≥ 5000 nM | ≥ 5000 nM | ≥ 5000 nM | 200 to 5000 nM |
| Clc1cnc(NC2CCCNC2)nc1-c1c[nH]c2ccncc12 (centres unmarked) [Compound 117] | 200 to 5000 nM | 20 to 200 nM | 200 to 5000 nM | 200 to 5000 nM | 20 to 200 nM |
| Cc1cnc(NC2CCCNC2)nc1-c1c[nH]c2ccccc12 (centres unmarked) [Compound 119] | ≥ 5000 nM | 20 to 200 nM | 200 to 5000 nM | 200 to 5000 nM | 20 to 200 nM |
| CCc1cnc(NC2CCCNC2)nc1-c1n[nH]c2ccc(C)cc12 (centres unmarked) [Compound 120] | ≥ 5000 nM | 200 to 5000 nM | ≥ 5000 nM | 200 to 5000 nM |  |
| FC1CCNCC1Nc1ncc(Cl)c(-c2c[nH]c3ccccc23)n1 (centres unmarked) [Compound 121] | 200 to 5000 nM | 20 to 200 nM | 200 to 5000 nM | 200 to 5000 nM | 20 to 200 nM |
| COCCn1cc(-c2nc(NC3CCCNC3)ncc2Cl)c2ccccc21 (centres unmarked) [Compound 122] | ≥ 5000 nM | 200 to 5000 nM | 200 to 5000 nM | ≥ 5000 nM | 200 to 5000 nM |
| COCCn1cc(-c2nc(NC3CCCNC3)ncc2C(F)(F)F)c2ccccc21 (centres unmarked) [Compound 123] | ≥ 5000 nM | 20 to 200 nM | 200 to 5000 nM | ≥ 5000 nM | 200 to 5000 nM |

From patent US20230000870A1, “METHODS OF TREATING CANCER IN BIOMARKER-IDENTIFIED PATIENTS WITH INHIBITORS OF CYCLIN-DEPENDENT KINASE 7 (CDK7)” (Syros Pharmaceuticals, Inc., priority 2019, published 2023)
